Measured values: patent US9688653B2, “Ethoxyphenyl thienyl compounds and methods for the treatment of bacterial infections” (Duke University, priority 2013, dated 2017)
“And” between values parts separate entries of the source, which are not always exact repeats. Equal values may be shown once. Read-outs that look alike come from different tables or passages of the source.

Assays:
[1] = test system: Bladder carcinoma 5637 cells; test: Cytotoxicity counterscreen, CellTiter Glo, 72 hr; assay type: cell-based, human; conditions: bladder carcinoma 5637 cells
Summary of the method: (§1)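 5637 bladder carcinoma cells were exposed to a 10-point compound series (300-0.58 μM, 0.5% DMSO) for 72 h. Viability was measured by CellTiter-Glo luminescence, and TC50 (CC50) was derived, with Hyamine as cytotoxic control.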

[2] = Cytotoxicity counterscreen, CellTiter Glo, 72 hr; assay type: cell-based, human; conditions: human, bladder carcinoma 5637 cells (ATCC HTB-9); for CC50 at 72 h: read-out: Mammalian cell toxicity CC50
Summary of the method: as §1

[3] = test system: UPEC; test: Bacterial growth and viability without phage; assay type: cell-based, Escherichia coli
Description: Assay Set-up: This secondary assay was conducted in the 96 well plate format. […] Compounds were added to plates in a concentration dependent manner in the range of 100-0.39 μM, followed by addition of 100 μL of bacterial culture. Each concentration was tested in quadruplicate. 1% DMSO (final well concentration) was included. The plates were tape sealed and shaken vigorously for 1.5 hr. An initial OD600 reading at the time of infection was measured to identify compounds that cause growth retardation or bacterial killing in the absence of phage. Next, K1F phage (5 μL) was added to all of the test wells. The plates were resealed and shaken vigorously at 37° C., and measurements of OD600 for phage-mediated lysis were taken after 3 hr.
Assay Description: T7 phage-mediated lysis assay: This assay determined if the mechanism of action of the compound is inhibition of phage infectivity or replication. The T7 phage has a nearly identical genome to K1F, without encoding an endosialidase. Its cycle of replication is similar to that of K1F as well. However, T7 entry into E. coli is inhibited by K capsules. This secondary assay was conducted in the 96 well plate format. […] An initial OD600 reading was measured to identify compounds that cause growth retardation or bacterial killing in the absence of phage. […]

[4] = molecular target: panel of 68 receptors (Homo sapiens, UniProt P25105); conditions: Platelet Activating Factor (PAF), hum, 10 μM
[5] = molecular target: panel of 68 receptors (Rattus norvegicus, UniProt P43140); conditions: Adrenergic α1A, rat, 10 μM
[6] = molecular target: panel of 68 receptors (Homo sapiens, UniProt P0DMS8); conditions: Adenosine A3, hum, 10 μM
[7] = molecular target: panel of 68 receptors (Homo sapiens, UniProt P08172); conditions: Muscarinic M2, hum, 10 μM
[8] = molecular target: panel of 68 receptors (Homo sapiens, UniProt P07550); conditions: Adrenergic β2, hum, 10 μM
[9] = molecular target: panel of 68 receptors (Homo sapiens, UniProt P31645); conditions: Transporter, Serotonin (5-Hydroxytryptamine) (SERT), hum, 10 μM
[10] = molecular target: panel of 68 receptors (Homo sapiens, UniProt P46663); conditions: Bradykinin B1, hum, 10 μM
[11] = molecular target: panel of 68 receptors (Homo sapiens, UniProt Q12809); conditions: Potassium Channel hERG, hum, 10 μM
[12] = molecular target: panel of 68 receptors (Homo sapiens, UniProt P35372); conditions: Opiate μ(OP3, MOP), hum, 10 μM
[13] = molecular target: panel of 68 receptors (Homo sapiens, UniProt P41143); conditions: Opiate δ1, (OP1, DOP), hum, 10 μM
[14] = molecular target: panel of 68 receptors (Homo sapiens, UniProt P25100); conditions: Adrenergic α1D, hum, 10 μM
Sequence of panel of 68 receptors (Homo sapiens, UniProt P25100) (P25100 whole entry): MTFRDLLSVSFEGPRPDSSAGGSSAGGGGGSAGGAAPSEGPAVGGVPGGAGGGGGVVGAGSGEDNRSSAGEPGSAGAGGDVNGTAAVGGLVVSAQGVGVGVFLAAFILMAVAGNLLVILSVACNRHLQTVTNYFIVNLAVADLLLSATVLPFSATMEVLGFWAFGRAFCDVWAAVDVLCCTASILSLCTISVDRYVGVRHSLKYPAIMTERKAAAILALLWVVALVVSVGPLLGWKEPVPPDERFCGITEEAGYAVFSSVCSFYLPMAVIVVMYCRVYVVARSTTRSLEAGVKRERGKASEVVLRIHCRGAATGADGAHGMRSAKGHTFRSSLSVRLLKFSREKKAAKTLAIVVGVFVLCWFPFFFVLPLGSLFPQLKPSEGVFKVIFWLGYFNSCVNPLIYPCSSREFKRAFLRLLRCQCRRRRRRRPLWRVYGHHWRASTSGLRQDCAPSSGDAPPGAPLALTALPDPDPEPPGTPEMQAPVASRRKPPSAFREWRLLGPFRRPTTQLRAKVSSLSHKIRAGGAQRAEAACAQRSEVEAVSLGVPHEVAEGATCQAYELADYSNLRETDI

Sequence of panel of 68 receptors (Rattus norvegicus, UniProt P43140) (P43140 whole entry): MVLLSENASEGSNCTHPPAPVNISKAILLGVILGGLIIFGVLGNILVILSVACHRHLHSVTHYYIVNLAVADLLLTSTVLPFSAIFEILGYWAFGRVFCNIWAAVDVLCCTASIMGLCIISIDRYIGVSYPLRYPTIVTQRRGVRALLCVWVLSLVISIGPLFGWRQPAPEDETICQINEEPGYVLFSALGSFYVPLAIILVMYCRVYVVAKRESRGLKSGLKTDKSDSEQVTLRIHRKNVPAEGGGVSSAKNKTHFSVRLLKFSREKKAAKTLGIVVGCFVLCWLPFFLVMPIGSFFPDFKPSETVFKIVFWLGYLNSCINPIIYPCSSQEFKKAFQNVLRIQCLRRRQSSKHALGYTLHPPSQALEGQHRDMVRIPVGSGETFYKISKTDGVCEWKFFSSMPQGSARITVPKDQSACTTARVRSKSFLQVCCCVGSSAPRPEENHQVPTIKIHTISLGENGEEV
Sequence of panel of 68 receptors (Homo sapiens, UniProt P25105) (P25105 whole entry): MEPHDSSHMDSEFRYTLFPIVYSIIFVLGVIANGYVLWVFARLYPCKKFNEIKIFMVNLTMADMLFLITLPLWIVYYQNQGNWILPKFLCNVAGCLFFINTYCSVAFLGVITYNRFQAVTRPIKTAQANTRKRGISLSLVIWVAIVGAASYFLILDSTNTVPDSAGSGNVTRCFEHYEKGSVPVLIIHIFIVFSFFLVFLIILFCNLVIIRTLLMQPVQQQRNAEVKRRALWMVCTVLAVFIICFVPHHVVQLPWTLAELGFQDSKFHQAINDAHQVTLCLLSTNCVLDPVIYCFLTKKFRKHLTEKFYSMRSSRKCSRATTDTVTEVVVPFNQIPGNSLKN
Sequence of panel of 68 receptors (Homo sapiens, UniProt P0DMS8) (P0DMS8 whole entry): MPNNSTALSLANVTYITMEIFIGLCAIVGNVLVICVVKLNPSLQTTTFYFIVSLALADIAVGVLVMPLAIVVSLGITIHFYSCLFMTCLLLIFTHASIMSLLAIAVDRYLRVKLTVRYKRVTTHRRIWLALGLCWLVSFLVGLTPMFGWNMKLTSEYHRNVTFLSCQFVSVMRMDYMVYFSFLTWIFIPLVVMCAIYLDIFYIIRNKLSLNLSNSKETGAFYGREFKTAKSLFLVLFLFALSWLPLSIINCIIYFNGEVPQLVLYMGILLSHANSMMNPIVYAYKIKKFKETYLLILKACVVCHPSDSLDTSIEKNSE
Sequence of panel of 68 receptors (Homo sapiens, UniProt P08172) (P08172 whole entry): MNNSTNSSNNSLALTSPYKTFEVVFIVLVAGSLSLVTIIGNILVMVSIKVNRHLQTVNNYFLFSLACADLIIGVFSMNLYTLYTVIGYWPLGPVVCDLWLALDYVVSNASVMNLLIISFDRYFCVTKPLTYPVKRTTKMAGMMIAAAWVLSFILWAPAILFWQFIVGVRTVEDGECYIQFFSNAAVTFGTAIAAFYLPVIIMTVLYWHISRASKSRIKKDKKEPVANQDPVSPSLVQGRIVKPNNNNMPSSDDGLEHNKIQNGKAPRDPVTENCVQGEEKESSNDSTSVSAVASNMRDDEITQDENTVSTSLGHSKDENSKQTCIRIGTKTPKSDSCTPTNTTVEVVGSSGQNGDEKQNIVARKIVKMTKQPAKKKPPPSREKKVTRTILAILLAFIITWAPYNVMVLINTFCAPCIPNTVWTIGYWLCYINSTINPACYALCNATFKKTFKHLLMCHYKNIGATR
Sequence of panel of 68 receptors (Homo sapiens, UniProt Q12809) (Q12809 whole entry): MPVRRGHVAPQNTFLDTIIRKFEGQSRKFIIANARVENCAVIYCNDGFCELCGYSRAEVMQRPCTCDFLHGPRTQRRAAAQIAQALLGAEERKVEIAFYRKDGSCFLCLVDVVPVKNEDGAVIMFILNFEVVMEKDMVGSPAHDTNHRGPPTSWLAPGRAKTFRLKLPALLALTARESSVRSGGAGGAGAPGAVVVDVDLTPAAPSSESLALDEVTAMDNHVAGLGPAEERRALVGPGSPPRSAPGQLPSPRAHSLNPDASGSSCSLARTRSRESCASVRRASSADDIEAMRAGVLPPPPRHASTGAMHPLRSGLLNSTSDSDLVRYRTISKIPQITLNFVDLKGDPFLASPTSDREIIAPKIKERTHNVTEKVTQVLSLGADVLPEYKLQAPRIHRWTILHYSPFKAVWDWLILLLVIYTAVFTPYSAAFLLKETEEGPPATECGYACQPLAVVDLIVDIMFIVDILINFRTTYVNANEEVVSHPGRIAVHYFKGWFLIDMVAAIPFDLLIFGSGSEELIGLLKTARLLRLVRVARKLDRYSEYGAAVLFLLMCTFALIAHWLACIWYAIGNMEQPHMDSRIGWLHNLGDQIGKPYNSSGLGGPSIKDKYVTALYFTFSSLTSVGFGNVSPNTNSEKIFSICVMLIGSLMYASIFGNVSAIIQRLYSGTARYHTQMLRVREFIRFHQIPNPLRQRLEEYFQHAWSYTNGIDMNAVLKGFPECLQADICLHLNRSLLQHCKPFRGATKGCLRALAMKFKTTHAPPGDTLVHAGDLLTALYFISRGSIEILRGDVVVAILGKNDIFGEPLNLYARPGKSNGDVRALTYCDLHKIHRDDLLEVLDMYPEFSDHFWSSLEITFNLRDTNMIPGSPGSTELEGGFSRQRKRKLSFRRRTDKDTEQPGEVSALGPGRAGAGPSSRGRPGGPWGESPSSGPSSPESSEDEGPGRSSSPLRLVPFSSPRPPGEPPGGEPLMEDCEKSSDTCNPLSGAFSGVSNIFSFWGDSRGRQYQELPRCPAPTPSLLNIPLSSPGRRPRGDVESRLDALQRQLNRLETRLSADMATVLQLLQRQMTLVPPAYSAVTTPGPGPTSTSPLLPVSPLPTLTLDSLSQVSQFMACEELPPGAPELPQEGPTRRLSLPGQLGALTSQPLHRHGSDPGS
Sequence of panel of 68 receptors (Homo sapiens, UniProt P31645) (P31645 whole entry): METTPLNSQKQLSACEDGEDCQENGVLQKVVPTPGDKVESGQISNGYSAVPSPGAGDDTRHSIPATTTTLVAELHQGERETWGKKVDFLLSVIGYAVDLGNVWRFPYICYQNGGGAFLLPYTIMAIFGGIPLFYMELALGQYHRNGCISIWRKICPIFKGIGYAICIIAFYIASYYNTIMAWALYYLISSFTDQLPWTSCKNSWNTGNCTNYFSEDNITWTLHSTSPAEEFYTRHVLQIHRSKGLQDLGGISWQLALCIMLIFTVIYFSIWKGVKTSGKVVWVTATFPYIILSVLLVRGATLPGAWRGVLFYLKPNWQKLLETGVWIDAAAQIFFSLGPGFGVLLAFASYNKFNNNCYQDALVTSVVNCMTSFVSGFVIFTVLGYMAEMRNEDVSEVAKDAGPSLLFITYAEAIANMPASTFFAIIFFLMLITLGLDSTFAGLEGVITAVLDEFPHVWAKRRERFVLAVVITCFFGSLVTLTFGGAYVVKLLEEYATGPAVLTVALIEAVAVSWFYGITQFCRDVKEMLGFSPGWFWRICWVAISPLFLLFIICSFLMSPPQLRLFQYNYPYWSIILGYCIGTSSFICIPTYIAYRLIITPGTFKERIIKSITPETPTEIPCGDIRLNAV
Sequence of panel of 68 receptors (Homo sapiens, UniProt P41143) (P41143 whole entry): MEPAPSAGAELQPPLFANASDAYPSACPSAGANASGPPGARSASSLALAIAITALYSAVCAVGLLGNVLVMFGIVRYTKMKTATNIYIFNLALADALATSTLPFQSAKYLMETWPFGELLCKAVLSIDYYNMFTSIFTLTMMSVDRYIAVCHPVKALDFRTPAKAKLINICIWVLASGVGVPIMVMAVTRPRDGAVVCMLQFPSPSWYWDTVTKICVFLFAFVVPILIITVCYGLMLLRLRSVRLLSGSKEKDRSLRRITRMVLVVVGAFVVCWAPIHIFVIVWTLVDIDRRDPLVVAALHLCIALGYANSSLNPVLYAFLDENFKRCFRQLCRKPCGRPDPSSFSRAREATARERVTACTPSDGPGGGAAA
Sequence of panel of 68 receptors (Homo sapiens, UniProt P46663) (P46663 whole entry): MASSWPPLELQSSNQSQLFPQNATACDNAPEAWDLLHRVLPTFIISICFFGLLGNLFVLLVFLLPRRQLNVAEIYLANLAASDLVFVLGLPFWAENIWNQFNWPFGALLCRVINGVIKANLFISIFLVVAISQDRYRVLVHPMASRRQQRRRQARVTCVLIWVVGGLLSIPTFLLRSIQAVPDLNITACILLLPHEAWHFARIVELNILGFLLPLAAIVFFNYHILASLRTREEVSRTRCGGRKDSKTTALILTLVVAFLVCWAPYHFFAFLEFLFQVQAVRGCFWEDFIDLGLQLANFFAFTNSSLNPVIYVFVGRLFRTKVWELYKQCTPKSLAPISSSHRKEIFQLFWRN

Compound | Cytotoxicity CC50 / TC50 / IC50 [1] | Cytotoxicity CC50 / TC50 / IC50 ([1]; listed as CID 23602075) [µM] | CC50 at 72 h ([2]; commercial sample, SID 103147605) [µM] | IC50 at 72 h ([2]; first round of synthetic analogues, n = 3) [µM] | IC50 at 72 h ([2]; purchased analogue series, n = 2) [µM] | CC50 at 72 h ([2]; synthesized sample, SID 126497311) [µM] | Effect on in vitro growth and viability of UPEC ([3]; absence of immune factors) | Effect on bacterial cell viability ([3]; highest tested concentration (100 μM)) | % Inh. [4] [%] | % Inh. [5] [%] | % Inh. [6] [%] | % Inh. [7] [%] | % Inh. [8] [%] | % Inh. [9] [%] | % Inh. [10] [%] | % Inh. [11] [%] | % Inh. [12] [%] | % Inh. [13] [%] | % Inh. [14] [%]
CCOc1ccc(-c2cc(NC(=O)c3c(F)cccc3F)c(C(=O)O)s2)cc1 [ML317, 3-(2,6-difluorobenzamido)-5-(4-ethoxyphenyl)thiophene-2-carboxylic acid] | 47.2 ± 7.2 µM and 51.6 µM | 47.2 ± 7.2 | 47.2 ± 7.2 | 51.6 | 47.2 | 51.6 ± 13.7 | no effect | no effect | – | – | – | – | – | – | – | – | – | – | –
CCOc1ccc(-c2cc(NC(=O)c3c(F)cccc3F)c(C(=O)O)s2)cc1 [KUC107784N-02] | – | – | – | – | – | – | – | – | 4 | 16 | 29 | −8 | 3 | 8 | 3 | −11 | 3 | 0 | 2
